Measured values taken from US11518764B2, “Substituted heteroaryls as inhibitors of the BCL6 BTB domain protein-protein interaction” (Ontario Institute for Cancer Research (OICR), priority 2018, dated 2022).

What was measured:
BCL6 BTB domain = BCL6 BTB domain (Homo sapiens (Human), UniProt P41182); test: Surface plasmon resonance (SPR) assay; type: binding; details: BCL6 BTB domain captured on SA chip, single cycle kinetics
[1] = test system: BCL6 reporter construct (3xBCL6-TK-Luc) in SuDHL4 cells; test: Cell-based luciferase assay; details: Homo sapiens, SU-DHL-4, 48 h, read-out: Luciferase-Assay EC50, uM), SuDHL4-3xBCL6-TK-Luc cells, two days, high dose 10 uM
Method in brief: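 SuDHL4 cells stably carrying a 3×BCL6-site TK-promoter firefly luciferase reporter, seeded at 15,000 cells/well, were dosed over a 10-point range (top 10 uM) and grown two days at 37 °C, 5% CO2. Luminescence then read after adding neolite reagent at room temperature.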

Karpas422 cells = test: Tumor cell growth inhibition assay; type: cell-based; details: Homo sapiens, KARPAS-422, 144 h, read-out: Tumor Growth Inhibition in Karpas-422 (IC50, uM), Karpas422 cells, six days, ATPlite
Method in brief: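 Growth inhibition was measured by ATPlite luminescence after six days of culture at 37° C. in 5% CO2. Karpas422 cells were seeded at 2,000 per well in Alpha-MEM plus 10% FBS. Compounds were given as a 10-point concentration series with a highest dose of 5 uM.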

SMILES	Kd (BCL6 BTB domain) [nM]	EC50 [1] [µM]	IC50 (Karpas422 cells) [µM]
COc1cc(-c2cn(CC(=O)Nc3cc(N4CCOCC4)ncc3Cl)c3nc(C)n(C)c(=O)c23)cc(C(N)=O)c1O [Compound I-123]	7	0.095	0.216
Cn1cnc2c(c(-c3cc(Cl)c(O)c(C(N)=O)c3)cn2CC(=O)Nc2cc(N3CCOCC3)nc(F)c2Cl)c1=O [Compound I-200]	17.9	0.158	0.133
C[C@H]1CN(Cc2ccccc2)CCN1c1cc(NC(=O)Cn2cc(-c3cc(C(N)=O)c(O)c(F)c3F)c3c(=O)n(C)cnc32)c(Cl)cn1 [Compound I-314]	117	0.901	6.7
CCN1CCN(c2cc(NC(=O)Cn3cc(-c4cc(Cl)c(O)c(C(N)=O)c4)c4c(=O)n(C)c(C)nc43)c(Cl)cn2)[C@@H](C)C1 [Compound I-431]	30.7	0.193	0.175
COCCN1CCN(c2cc(NC(=O)Cn3cc(-c4cc(C(N)=O)c(O)c5c4OCO5)c4c(=O)n(C)cnc43)c(Cl)c(F)n2)[C@@H](C)C1 [Compound I-375]	1.31	0.0114	0.0256
Cn1cnc2c(c(-c3cc(Cl)c(O)c(C(N)=O)c3)cn2CC(=O)Nc2cc(F)nc(F)c2F)c1=O [Compound I-208]	567	5.15	1.2
C[C@H]1CN(C2COC2)CCN1c1cc(NC(=O)Cn2cc(-c3cc(F)c(O)c(C(N)=O)c3)c3c(=O)n(C)cnc32)c(Cl)c(F)n1 [Compound I-438]	2.5	0.0686	0.0508
Cn1cnc2c(c(-c3cc(C(N)=O)c(O)c(F)c3F)cn2CC(=O)Nc2cc(N3CCOCC3)nc(F)c2Cl)c1=O [Compound I-318]	51.8	0.228	0.319
Cn1cnc2c(c(-c3cc(Cl)c(O)c(C(N)=O)c3)cn2CC(=O)Nc2ccc(C#N)cc2Cl)c1=O [Compound I-384]	115	1.18	0.8
Cn1cnc2c(c(-c3cc(C(N)=O)c(O)c(F)c3F)cn2CC(=O)Nc2cc(N3CCOCC3)c(F)cc2Cl)c1=O [Compound I-227]	420	2.5	2.16
C[C@H]1CN(CC2CCO2)CCN1c1cc(NC(=O)Cn2cc(-c3cc(C(N)=O)c(O)c(F)c3F)c3c(=O)n(C)cnc32)c(Cl)c(F)n1 (stereo partly drawn) [Compound I-460, 5-(7-(2-((3-chloro-2-fluoro-6-((2S)-2-methyl-4-(oxetan-2-ylmethyl)piperazin-1-yl)pyridin-4-yl)amino)-2-oxoethyl)-3-methyl-4-oxo-4,7-dihydro-3H-pyrrolo[2,3-d]pyrimidin-5-yl)-3,4-difluoro-2-hydroxybenzamide]	9.87	0.102	0.223
CC(C)[C@H]1CN(C)CCN1c1cc(NC(=O)Cn2cc(-c3cc(Cl)c(O)c(C(N)=O)c3)c3c(=O)n(C)cnc32)c(Cl)cn1 [Compound I-360]	30.9	0.659	0.778
C[C@H]1CN(C)C[C@H](C)N1c1cc(NC(=O)Cn2cc(-c3cc(C(N)=O)c(O)c(F)c3F)c3c(=O)n(C)cnc32)c(Cl)c(F)n1 [Compound I-487]	122	1.29	1.8
COCn1c(Cl)nc2c(c(-c3cc(Cl)c(O)c(C(N)=O)c3)cn2CC(=O)Nc2cc(N3CCN(C)C[C@@H]3C)ncc2Cl)c1=O [Compound I-323]	100	1.09	0.914
CO[C@@H](C)CN1CCN(c2cc(NC(=O)Cn3cc(-c4cc(C(N)=O)c(O)c(F)c4F)c4c(=O)n(C)cnc43)c(Cl)c(F)n2)[C@@H](C)C1 [Compound I-462]	50.3	0.184	0.289
Cn1cnc2c(c(-c3cc(Cl)c(O)c(C(N)=O)c3)cn2CC(=O)Nc2cc(N3CCOC(C)(C)C3)ncc2Cl)c1=O [Compound I-147]	19.6	0.144	0.0995
COc1ccc(Cl)c(NC(=O)Cn2cc(-c3cc(Cl)c(O)c(C(N)=O)c3)c3c(=O)n(C)cnc32)c1 [Compound I-398]	82.7	2.6	1.3
Cc1nc2c(c(-c3cc(F)c(O)c(C(N)=O)c3)cn2CC(=O)Nc2cc(N3CCN(C)C[C@@H]3C)ncc2Cl)c(=O)n1C [Compound I-207]	4.45	0.0429	0.0703
Cn1cnc2c(c(-c3cc(C(N)=O)c(O)c(F)c3F)cn2CC(=O)Nc2cc(N3CC4COCC4C3)ncc2Cl)c1=O (stereo not drawn) [Compound I-299]	31.4	0.521	0.685
